Counter-ions that a name gives are not always drawn.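 These data come from cells grown in 96-well plates and exposed to compound for 48 hours at five concentrations. Abbreviation: GI50, concentration required for 50% inhibition of growth.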 Calls of active or inactive are those of the source. Cut-off read from the data, not from the text of the source: active = GI50 up to about 1.1 µM and inactive = higher.
Columns and labels:
Assay in all cases: NCI anticancer screen, dose series, 48 h
[1] = test system: SK-MEL-5
[2] = test system: ACHN
[3] = test system: KM12
[4] = test system: Malme-3M
[5] = test system: A498
[6] = test system: SF-268
[7] = test system: HCC 2998
[8] = test system: HCT-15
[9] = test system: HT-29
[10] = test system: LXFL 529
[11] = test system: SF-539
[12] = test system: SNB-75
[13] = test system: MOLT-4
[14] = test system: UACC-257
[15] = test system: NCI-H226
[16] = test system: DU-145
[17] = test system: SK-MEL-28
[18] = test system: MCF7
[19] = test system: NCI/ADR-RES
[20] = test system: MDA-MB-231

SMILES | GI50 [1] | GI50 [2] | GI50 [3] | GI50 [4] | GI50 [5] | GI50 [6] | GI50 [7] | GI50 [8] [µM] | GI50 [9] | GI50 [10] | GI50 [11] | GI50 [12] | GI50 [13] | GI50 [14] | GI50 [15] | GI50 [16] | GI50 [17] | GI50 [18] | GI50 [19] | GI50 [20]
CC1(C)CC(=O)c2c(oc3cc(O)c(O)cc23)C1 | 17.7 µM (inactive) | 31.3 µM (inactive) | 23.9 µM (inactive) | 32.7 µM (inactive) | 39 µM (inactive) | 24.3 µM (inactive) | 59.4 µM (inactive) | 25.4 | 53 µM (inactive) | 24.7 µM (inactive) | 28.6 µM (inactive) | 32.8 µM (inactive) | 21.3 µM (inactive) | 30.5 µM (inactive) | – | – | – | – | – | –
O=[N+]([O-])c1ccc2ncccc2c1CCc1c([N+](=O)[O-])ccc2ncccc12 | > 100 µM (inactive) | > 100 µM (inactive) | > 100 µM (inactive) | > 100 µM (inactive) | > 100 µM (inactive) | > 100 µM (inactive) | > 100 µM (inactive) | > 100 | > 100 µM (inactive) | – | > 100 µM (inactive) | > 100 µM (inactive) | > 100 µM (inactive) | > 100 µM (inactive) | > 100 µM (inactive) | > 100 µM (inactive) | > 100 µM (inactive) | > 100 µM (inactive) | > 100 µM (inactive) | > 100 µM (inactive)
COc1ccc(C(=O)Cn2c(C(C)=O)nc3ccccc32)cc1 | 4.15 µM (inactive) | 8.59 µM (inactive) | 7.1 µM (inactive) | 41 µM (inactive) | 67 µM (inactive) | > 64.9 µM (inactive) | 29.9 µM (inactive) | 6.35 | 23.4 µM (inactive) | – | > 53.5 µM (inactive) | > 100 µM (inactive) | 4.98 µM (inactive) | 30.4 µM (inactive) | > 74 µM (inactive) | 30.7 µM (inactive) | > 46.7 µM (inactive) | 4.58 µM (inactive) | 3.55 µM (inactive) | 4.82 µM (inactive)
O=C(CC1(O)C(=O)Nc2ccccc21)c1ccc(Cl)c(Cl)c1 (configuration not stated) | > 100 µM (inactive) | > 100 µM (inactive) | – | – | > 100 µM (inactive) | > 100 µM (inactive) | > 100 µM (inactive) | > 100 | > 100 µM (inactive) | > 100 µM (inactive) | > 100 µM (inactive) | > 100 µM (inactive) | > 100 µM (inactive) | – | > 100 µM (inactive) | – | > 100 µM (inactive) | – | – | –
C=CCc1cc(OC)c2c(c1)C(OC)CC(c1ccc(OC)c(OC)c1)O2 (configuration not stated) | > 100 µM (inactive) | 71.9 µM (inactive) | > 100 µM (inactive) | 55.1 µM (inactive) | > 100 µM (inactive) | 73.8 µM (inactive) | > 100 µM (inactive) | 61.5 | > 100 µM (inactive) | > 100 µM (inactive) | > 100 µM (inactive) | 54.8 µM (inactive) | 45.5 µM (inactive) | > 100 µM (inactive) | – | – | > 100 µM (inactive) | – | – | –
CC#CC(=O)SCCNC(=O)CC | 8.39 µM (inactive) | > 10 µM (inactive) | > 10 µM (inactive) | > 10 µM (inactive) | > 10 µM (inactive) | > 10 µM (inactive) | > 10 µM (inactive) | > 10 | > 10 µM (inactive) | – | 9.02 µM (inactive) | > 10 µM (inactive) | 1.48 µM (inactive) | > 10 µM (inactive) | > 10 µM (inactive) | > 10 µM (inactive) | > 8.71 µM (inactive) | 4.41 µM (inactive) | > 10 µM (inactive) | > 10 µM (inactive)
Cc1ccc([N+](=O)[O-])cc1NC(=O)/C(=N/NC(=S)NN)C1SC(=S)NC1=O (configuration not stated) | > 100 µM (inactive) | > 100 µM (inactive) | > 100 µM (inactive) | > 100 µM (inactive) | > 100 µM (inactive) | > 100 µM (inactive) | – | > 100 | > 100 µM (inactive) | > 100 µM (inactive) | > 100 µM (inactive) | > 100 µM (inactive) | 78.9 µM (inactive) | > 100 µM (inactive) | > 100 µM (inactive) | – | > 100 µM (inactive) | – | – | –
CCc1ccc2oc(=O)ccc2c1 | > 100 µM (inactive) | > 100 µM (inactive) | > 100 µM (inactive) | > 100 µM (inactive) | > 100 µM (inactive) | > 100 µM (inactive) | > 100 µM (inactive) | > 100 | > 100 µM (inactive) | – | > 100 µM (inactive) | > 100 µM (inactive) | > 100 µM (inactive) | > 100 µM (inactive) | > 100 µM (inactive) | > 10 µM (inactive) | > 100 µM (inactive) | > 100 µM (inactive) | > 100 µM (inactive) | > 10 µM (inactive)
COC1=CC(=Nc2c(Cl)cc(Cl)cc2OC(=O)c2ccc([N+](=O)[O-])cc2)C=C(OC)C1=O | 7.05 µM (inactive) | 10.7 µM (inactive) | 15.5 µM (inactive) | 15.5 µM (inactive) | – | 9.64 µM (inactive) | 18.2 µM (inactive) | 5.97 | 18.4 µM (inactive) | 5.78 µM (inactive) | 5.81 µM (inactive) | 14.2 µM (inactive) | 2.87 µM (inactive) | 11.7 µM (inactive) | 15.2 µM (inactive) | – | 16.7 µM (inactive) | – | – | –
CC1=NOC(=O)/C1=C/c1ccccc1O | > 100 µM (inactive) | > 100 µM (inactive) | > 100 µM (inactive) | > 100 µM (inactive) | – | > 100 µM (inactive) | > 100 µM (inactive) | > 100 | > 100 µM (inactive) | > 100 µM (inactive) | > 100 µM (inactive) | > 100 µM (inactive) | > 100 µM (inactive) | > 100 µM (inactive) | > 100 µM (inactive) | – | > 100 µM (inactive) | – | – | –
Cc1ccc(C(=O)/C=C(O)/C(O)=C/C(=O)c2ccc(C)cc2C)c(C)c1 | 1.75 µM (inactive) | 1.84 µM (inactive) | 1.88 µM (inactive) | 1.86 µM (inactive) | 2.04 µM (inactive) | 1.91 µM (inactive) | 1.92 µM (inactive) | 2 | 2.48 µM (inactive) | – | 1.85 µM (inactive) | 1.95 µM (inactive) | 1.98 µM (inactive) | 1.71 µM (inactive) | 2.04 µM (inactive) | 2.36 µM (inactive) | 1.86 µM (inactive) | 2.02 µM (inactive) | 1.92 µM (inactive) | 2.34 µM (inactive)
CSCCCS/C1=C/CCCCCCCCCC1 | > 100 µM (inactive) | > 100 µM (inactive) | > 100 µM (inactive) | > 100 µM (inactive) | > 100 µM (inactive) | > 100 µM (inactive) | > 100 µM (inactive) | > 100 | > 100 µM (inactive) | – | > 100 µM (inactive) | 0.281 µM (active) | > 100 µM (inactive) | > 100 µM (inactive) | > 100 µM (inactive) | > 100 µM (inactive) | > 100 µM (inactive) | > 100 µM (inactive) | > 100 µM (inactive) | > 100 µM (inactive)
O=C(NCCc1ccccn1)c1ccc2cc(C(=O)N3CC(CCl)c4ccc([N+](=O)[O-])cc43)[nH]c2c1 (configuration not stated) | > 61.5 µM (inactive) | 36.6 µM (inactive) | > 100 µM (inactive) | 10.9 µM (inactive) | > 57.7 µM (inactive) | 7.1 µM (inactive) | 61.5 µM (inactive) | 77.4 | > 100 µM (inactive) | – | > 43.4 µM (inactive) | 18.8 µM (inactive) | > 100 µM (inactive) | > 46.3 µM (inactive) | > 58.9 µM (inactive) | > 52.4 µM (inactive) | > 100 µM (inactive) | > 67.9 µM (inactive) | 26.1 µM (inactive) | > 33.1 µM (inactive)
CC(C)=CCCC(C)C1=C(O)C(=O)C(C)=CC1=O (configuration not stated) | 11.6 µM (inactive) | 1.88 µM (inactive) | 18.3 µM (inactive) | 9.29 µM (inactive) | 18.7 µM (inactive) | 20.2 µM (inactive) | 12.8 µM (inactive) | 2.23 | 16.3 µM (inactive) | – | 19.6 µM (inactive) | 18.4 µM (inactive) | 1.8 µM (inactive) | 9.12 µM (inactive) | 20.8 µM (inactive) | 17.6 µM (inactive) | 4.24 µM (inactive) | 5.74 µM (inactive) | 12.2 µM (inactive) | 2.98 µM (inactive)
COc1c(C)cc2c(C(C)C)c(O)c(O)c(C=O)c2c1O | 16 µM (inactive) | 29.6 µM (inactive) | 18.3 µM (inactive) | 16.2 µM (inactive) | – | 38.4 µM (inactive) | 33.9 µM (inactive) | 24.5 | 13.3 µM (inactive) | 24.8 µM (inactive) | 17.8 µM (inactive) | 25.4 µM (inactive) | 55.7 µM (inactive) | 21.4 µM (inactive) | 18.2 µM (inactive) | – | 22.4 µM (inactive) | – | – | –
CC[C@@H]1C[C@H]2CC3c4[nH]c5ccc(O)cc5c4CCN(C2)C31 | – | > 100 µM (inactive) | > 100 µM (inactive) | > 100 µM (inactive) | – | > 100 µM (inactive) | > 100 µM (inactive) | > 100 | > 100 µM (inactive) | > 100 µM (inactive) | > 100 µM (inactive) | > 100 µM (inactive) | > 100 µM (inactive) | > 100 µM (inactive) | > 100 µM (inactive) | – | > 100 µM (inactive) | – | – | –
O=C1c2cccc3cccc(c23)C(=O)N1CCCNCCCCNCCCNCCCN1C(=O)c2cccc3cccc(c23)C1=O [BISNAPHTHALIMIDOPROPYL SPERMIDINE TRIHYDROBROMIDE] | 2.02 µM (inactive) | 1.22 µM (inactive) | 0.556 µM (active) | 0.513 µM (active) | 0.977 µM (active) | 0.282 µM (active) | 0.586 µM (active) | 11.7 | 0.231 µM (active) | – | 0.585 µM (active) | 0.319 µM (active) | 0.0333 µM (active) | 1.56 µM (inactive) | 0.505 µM (active) | 0.371 µM (active) | 1.39 µM (inactive) | 0.0343 µM (active) | 19.9 µM (inactive) | 1.06 µM (active)
